Drawing on ChEMBL document CHEMBL1158930, “3'-Formyl-2',4',6'-trihydroxy-5'-methyldihydrochalcone, a Prospective New Agrochemical from Psidium acutangulum” (1990), this text covers Activity for 1 molecule.

Common to all, as to assay type: functional
The test system of assay [1] is Heliothis virescens. In words: Antifeedant activity in Heliothis virescens at 0.25 ug/cm'2 relative to dithane.
The subject of assay [2] is Heliothis virescens. Nature of the assay: Antifeedant activity in Heliothis virescens at 247.5 ug/cm'2 after 2 days relative to control.
The test system of assay [3] is Heliothis virescens. In words: Antifeedant activity in Heliothis virescens at 247.5 ug/cm'2 after 4 days relative to control.
In assay [4] the test system is Heliothis virescens. Nature of the assay: Antifeedant activity in Heliothis virescens at 247.5 ug/cm'2 after 6 days relative to control.
The test system of assay [5] is Heliothis virescens. In words: Antifeedant activity in Heliothis virescens at 76.7 ug/cm'2 after 2 days relative to control.
Assay [6] deals with Heliothis virescens. In words: Antifeedant activity in Heliothis virescens at 76.7 ug/cm'2 after 4 days relative to control.
For assay [7], the system named is Heliothis virescens. Nature of the assay: Antifeedant activity in Heliothis virescens at 76.7 ug/cm'2 after 6 days relative to control.
Assay [8] has as its system Heliothis virescens. In words: Antifeedant activity in Heliothis virescens at 24.8 ug/cm'2 after 2 days relative to control.
The test system of assay [9] is Heliothis virescens. Nature of the assay: Antifeedant activity in Heliothis virescens at 24.8 ug/cm'2 after 4 days relative to control.
Assay [10] relates to Heliothis virescens. Nature of the assay: Antifeedant activity in Heliothis virescens at 24.8 ug/cm'2 after 6 days relative to control.
Assay [11] has as its system Heliothis virescens. In words: Antifeedant activity in Heliothis virescens at 7.7 ug/cm'2 after 2 days relative to control.
The subject of assay [12] is Heliothis virescens. In words: Antifeedant activity in Heliothis virescens at 7.7 ug/cm'2 after 4 days relative to control.
The subject of assay [13] is Heliothis virescens. Nature of the assay: Antifeedant activity in Heliothis virescens at 7.7 ug/cm'2 after 6 days relative to control.

Molecules are shown by their SMILES.

For the molecule `Cc1c(O)c(C=O)c(O)c(C(=O)CCc2ccccc2)c1O`, the Activity in [1] was determined as 90%; in [2], 90%; in assay [3], 60%; in assay [4], 60%; in assay [5] it was 90%; in assay [6] it was 60%. The Activity came out at 60% in assay [7]; 90% in [8]; 60% in assay [9]; 30% in [10]; 60% in [11]; 60% in assay [12]. The same molecule displayed an Activity in assay [13] of 30%.
